Data taken from patent US20260034253A1, “NECTIN-4 MINIPROTEIN CONJUGATES” (Aktis Oncology, Inc., priority 2022, published 2026).
Numbered stars: 1 amine (or outer) side, 2 acyl side, 3 side chain; on linkers, the order of the positions; unused ones are H or OH. Bridge positions count the residues as written; N and C are the ends. Square brackets hold non-standard residues; d marks the D form. Ends that are not written are not given here. * marks the point of attachment. Biotin = O=C1N[C@H]2[C@H](CS[C@H]2CCCCC(=O)*)N1; X1 = O=C([C@H](CCCCO)N[*:1])[*:2]; Cit = NC(=O)NCCC[C@H](N)C(=O)O; PEG4 = NCCOCCOCCOCCOCCC(=O)O

target: T1, human Nectin-4 (Homo sapiens, UniProt Q96NY8); assay: Surface plasmon resonance (Biacore T200) binding to human Nectin-4; details: Table 2B, binding affinities of exemplary compounds to Nectin-4, read-out: Binding Affinity
T1 sequence (Q96NY8 32-510): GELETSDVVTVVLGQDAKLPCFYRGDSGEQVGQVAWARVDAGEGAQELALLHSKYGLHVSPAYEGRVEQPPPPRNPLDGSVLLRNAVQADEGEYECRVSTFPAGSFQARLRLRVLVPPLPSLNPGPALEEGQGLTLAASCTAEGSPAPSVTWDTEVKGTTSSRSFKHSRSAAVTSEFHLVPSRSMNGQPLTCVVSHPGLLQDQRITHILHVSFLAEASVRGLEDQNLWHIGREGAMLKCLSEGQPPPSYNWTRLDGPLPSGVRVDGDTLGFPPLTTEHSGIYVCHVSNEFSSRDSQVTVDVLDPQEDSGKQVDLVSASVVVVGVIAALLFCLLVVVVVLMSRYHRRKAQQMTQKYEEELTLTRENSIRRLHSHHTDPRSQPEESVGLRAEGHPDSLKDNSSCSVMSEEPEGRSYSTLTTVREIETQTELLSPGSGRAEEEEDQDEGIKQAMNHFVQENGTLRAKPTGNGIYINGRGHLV
Description: Peptide binding affinity to the target protein was measured by SPR using a Biacore T200 instrument. The target protein was covalently coupled to a Biacore chip surface using free amine-coupling chemistry (NHS/EDC) and all uncoupled sites were blocked with ethanolamine. Free peptides were flowed over the target protein surface in increasing concentrations to measure association (KA) and dissociation ([…]) to calculate the equilibrium dissociation constant (KD) using an appropriate binding model (see, e.g., Nikolas Stroth, J Biol Methods. 2016; 3 (1)).
In all figures (FIGS. 1A, 1B, 2A, and 2B), lines on graphs are labeled from top to bottom, beginning with letter “a,” and the corresponding concentration is noted to the right of the figure, next to the letter designating each line.
Surface plasmon resonance (SPR) analyses were performed using Biacore T200 (GE Healthcare). Target protein (“ligand”) was immobilized to a CM5 Series S sensor chip (Cytiva) using amine-coupling chemistry. Running buffer was 0.05% Surfactant P20 in HEPES buffered saline (HBS-P), pH 7.4 (Cytiva). Immobilization was performed at 25° C. Carboxyl groups in each flow cell were activated using a 1:1 mixture of 0.4 M 1-ethyl-3-(3-dimethylaminopropyl)-carbodiimide in water (EDC) and 0.1 M N-hydroxysuccinimide in water (NHS) for 7 minutes. The ligand was prepared in 10 mM Sodium acetate pH 5 (Cytiva). Pulsatile injections were made to target a specific immobilization level. Any remaining amine-reactive esters on the chip surface were blocked with a 7-minute injection of 1 M ethanolamine, pH 8.5. Three 10-second pulses of 50 mM Sodium hydroxide were then made to remove any unbound ligand. Reference cells were modified using amine coupling chemistry, omitting ligand injection.
Increase in signal (RU) is proportional to an increase in binding events between the analyte and ligand surface. The injection was then stopped, and dissociation was measured. The resulting sensorgram has reference surface and blank injection subtracted prior to curve fitting. Measured association (ka, 1/M^s−1) and dissociation (kd, s^−1) were fit to a 1:1 binding model to calculate an equilibrium dissociation constant, KD(M) for each analyte. Equilibrium binding constants (KD) and binding inhibition constants (Ki) estimated from surface plasmon resonance (SPR) or DELFIA® binding assays for exemplary compounds as set forth in Table 2A.
In this example, affinity for mouse Nectin-4 (FIG. 3A) and human Nectin-4 (FIG. 3B) were measured using a 1:1 binding model at twenty-five degrees Celsius. In both of FIGS. 3A and 3B, lines on graphs were labeled from top to bottom, beginning with letter a, and the corresponding concentration was noted to the right of the figure.

**Q.** With “{Biotin-PEG4}-CDYDEQFFTALKRLRGDDICEYIQASFQYLPGLCIEEILDNLGCS (disulfide 1-34, 20-44) [Compound C193]” as the molecule, how does the Kd read?
**A.** Its Kd is 1 nM.

**Q.** With `CC[C@H](C)[C@@H]1NC(=O)[C@H](Cc2ccc(O)cc2)NC(=O)[C@H](CO)NC(=O)[C@@H]2CSSC[C@@H](C(=O)N[C@@H](CO)C(=O)O)NC(=O)CNC(=O)[C@H](CC(C)C)NC(=O)[C@H](CC(N)=O)NC(=O)[C@H](CC(=O)O)NC(=O)[C@H](CC(C)C)NC(=O)[C@H]([C@@H](C)CC)NC(=O)[C@H](CCC(=O)O)NC(=O)[C@H](CCC(=O)O)NC(=O)[C@H]([C@@H](C)CC)NC(=O)[C@H](CSSC[C@H](NC(=O)CCOCCOCCOCCOCCNC(=O)CCCC[C@@H]3SC[C@@H]4NC(=O)N[C@@H]43)C(=O)N[C@@H](CCC(=O)O)C(=O)N[C@@H](Cc3ccc(O)cc3)C(=O)N[C@@H](CC(=O)O)C(=O)N[C@@H](CCC(=O)O)C(=O)N[C@@H](CCC(=O)O)C(=O)N[C@@H](Cc3ccccc3)C(=O)N[C@@H](Cc3ccccc3)C(=O)N[C@@H]([C@@H](C)O)C(=O)N[C@@H](C)C(=O)N[C@@H](CC(C)C)C(=O)N[C@@H](CCCCN)C(=O)N[C@@H](CCCNC(=N)N)C(=O)N[C@@H](CC(C)C)C(=O)N[C@@H](CCCNC(=N)N)C(=O)NCC(=O)NCC(=O)N[C@@H](CC(=O)O)C(=O)N[C@@H]([C@@H](C)CC)C(=O)N2)NC(=O)[C@H](CC(C)C)NC(=O)CNC(=O)[C@@H]2CCCN2C(=O)[C@H](CC(C)C)NC(=O)[C@H](Cc2ccc(O)cc2)NC(=O)[C@H](CCC(N)=O)NC(=O)[C@H](Cc2ccccc2)NC(=O)[C@H](CO)NC(=O)[C@H](C)NC(=O)[C@H](CCC(N)=O)NC1=O` [Compound C179] as the molecule, how does the Kd read?
**A.** The Kd was 1.8 nM.

**Q.** How did the Kd turn out when “{Biotin-PEG4}-CEYDGEFFTALARLRGGDICQYIQAKFQYLPGLCIEEILDNLGCS-OH (disulfide 1-34, 20-44) [Compound C158]” was run?
**A.** Its Kd is 1.1 nM.

**Q.** Which Kd does the source give for “{Biotin-PEG4}-CEYDEEFFTALARLRGGDICYYIQAKFQYLPKLCIEEILDNLGCS (disulfide 1-34, 20-44) [Compound C166]” here?
**A.** Its Kd is 0.75 nM.

**Q.** “{Biotin-PEG4}-CEYDEEFFTALARLRGADICYYIQAKFQYLPGDCIEEILDNLGCS (disulfide 1-34, 20-44) [Compound C140]” was tested. Which Kd did it give?
**A.** The Kd was 1.1 nM.

**Q.** For “{Biotin-PEG4}-CEYDEEFFTALASLRGGDICYYIQAKFQYLPGLCIEEILDNLGCS-OH (disulfide 1-34, 20-44) [Compound C161]”, which Kd is on record?
**A.** The Kd was 7.5 nM.

**Q.** Which Kd does the source give for “{Biotin-PEG4}-CEYDGEFFTALARLRGADICEYIQAKFQYYPGLCIEEILDNLGCS (disulfide 1-34, 20-44) [Compound C144]” here?
**A.** The Kd was 3.7 nM.

**Q.** How did the Kd turn out when “{Biotin-PEG4}-CEYDEEFFTALKRLRGADICDYIQASFQYLPGLCIEEILDNLGCS (disulfide 1-34, 20-44) [Compound C195]” was run?
**A.** Its Kd is 2.3 nM.

**Q.** For “{Biotin-PEG4}-CEYDEEFFTALARLRGGDICYYIQA[X1]FQYLPGLCIEEILDNLGCS-OH (disulfide 1-34, 20-44) [Compound C164]”, which Kd is on record?
**A.** Its Kd is 5 nM.

**Q.** Which Kd does the source give for “{Biotin-PEG4}-CEYDEEFFTALKRLRGGDICDYIQASFQYLPGECIEEILDNLGCS (disulfide 1-34, 20-44) [Compound C203]” here?
**A.** The Kd was 2.3 nM.

**Q.** Which Kd does the source give for “{Biotin-PEG4}-CDYDEEFFTALKRLRGGDICSYIQASFQYLPGLCIEEILDNLGCS (disulfide 1-34, 20-44) [Compound C189]” here?
**A.** Its Kd is 1.1 nM.

**Q.** With “{Biotin-PEG4}-CEYDEEFFTALKRLRGGDICEYIQASFQYLPGECIEEILDNLGCS (disulfide 1-34, 20-44) [Compound C202]” as the molecule, how does the Kd read?
**A.** Its Kd is 2.2 nM.

**Q.** With “{Biotin-PEG4}-CEYDEEFFTALARLRGGDICQYIQAKFQYLPGQCIEEILDNLGCS-OH (disulfide 1-34, 20-44) [Compound C149]” as the molecule, how does the Kd read?
**A.** Its Kd is 0.75 nM.

**Q.** “{Biotin-PEG4}-CEYDEEFFTALAQLRGGDICYYIQAKFQYLPGLCIEEILDNLGCS (disulfide 1-34, 20-44) [Compound C162]” was tested. Which Kd did it give?
**A.** The Kd was 8.8 nM.

**Q.** “{Biotin-PEG4}-CDYDEEFFTALKRLRGDDICEYIQASFQYLPGLCIEEILDNLGCS-OH (disulfide 1-34, 20-44) [Compound C191]” was tested. Which Kd did it give?
**A.** The Kd was 1.4 nM.

**Q.** For “{Biotin-PEG4}-CEYDEQFFTALKRLRGADICSYIQASFQYLPGLCIEEILDNLGCS (disulfide 1-34, 20-44) [Compound C185]”, which Kd is on record?
**A.** The Kd was 1 nM.

**Q.** With “{Biotin-PEG4}-CEYDEEFFTALARLRGGDICYYILAKFQYLPGECIEEILDNLGCS (disulfide 1-34, 20-44) [Compound C145]” as the molecule, how does the Kd read?
**A.** The Kd was 1.3 nM.

**Q.** For “{Biotin-PEG4}-CEYDEEFFTALKRLRGDDICSYIQASFQYLPGLCIEEILDNLGCS (disulfide 1-34, 20-44) [Compound C182]”, which Kd is on record?
**A.** Its Kd is 3 nM.

**Q.** For “{Biotin-PEG4}-CEYDEEFFTALARLRGSDICLYIQAKFQYLPGLCIEEILDNLGCS (disulfide 1-34, 20-44) [Compound C156]”, which Kd is on record?
**A.** Its Kd is 1.1 nM.

**Q.** With “{Biotin-PEG4}-CEYDEQFFTALKRLRGADICEYIQASFQYLPGLCIEEILDNLGCS (disulfide 1-34, 20-44) [Compound C183]” as the molecule, how does the Kd read?
**A.** The Kd was 1.2 nM.

**Q.** How did the Kd turn out when “{Biotin-PEG4}-CEYDEEFFTALARLRGGDICDYIQAKFQYLPGLCIAEILDNLGCS (disulfide 1-34, 20-44) [Compound C157]” was run?
**A.** The Kd was 1.1 nM.

**Q.** For “{Biotin-PEG4}-CEYDEEFFTALA[Cit]LRGDDICSYIQA[X1]FQYLPGLCIEEILDNLGCS-OH (disulfide 1-34, 20-44) [Compound C170]”, which Kd is on record?
**A.** Its Kd is 8.8 nM.

**Q.** For “{Biotin-PEG4}-CEYDEEFFTALKRLRGGDICDYIQASFQYLPGLCIEEILDNLGCS-OH (disulfide 1-34, 20-44) [Compound C200]”, which Kd is on record?
**A.** The Kd was 2 nM.

**Q.** “{Biotin-PEG4}-CEYDEEFFTALKRLRGGDICEYIQAAFQYLPGLCIEEILDNLGCS (disulfide 1-34, 20-44) [Compound C198]” was tested. Which Kd did it give?
**A.** Its Kd is 2.3 nM.

**Q.** With “{Biotin-PEG4}-CEYDEEFFTALARLRGGDICEYIQAKFQYLEGLCIEEILDNLGCS-OH (disulfide 1-34, 20-44) [Compound C150]” as the molecule, how does the Kd read?
**A.** The Kd was 1 nM.
